Where “and” joins values, the source holds several entries; their conditions need not be identical. Equal values may be shown once.
Columns and labels:
Format in all cases: physicochemical
[1] = UV absorbance spectrum in solution (λmax, λcrit, extinction coefficients); conditions: for λcrit: critical wavelength; for E (1%, 1 cm): mass extinction coefficient; for ε: molar extinction coefficient, in M-1 cm-1 (unit assumed)
Description: (§1) FIG. 1 is a graphical representation of the absorbance of compounds 142 and 143 measured in a 10 mm cuvette as 0.001% solutions in methanol (142 is the uppermost trace at peak point of approximately 330 nm); The synthesised benzoyl functionalised compounds and their spectroscopic properties can be seen in table 2 wherein; breakthrough denotes the value in nm where transmittance increases beyond 1%; steepness refers to the distance in nm over which transmittance increases from 1 to 80% (a higher value indicates a less steep transition from absorbing to transmitting and is generally unfavourable); and ^a denotes an average of multiple measurements. As a general comment, it can be noted that the benzoyl substituted compounds gave similar absorbance maxima to the corresponding trifluoroacetyl derivative.

[2] = Photostability protocol: thin film irradiated with xenon arc lamp; conditions: 1 hour xenon arc lamp; for Photostability: ratio of absorbance at λmax irradiated vs unirradiated, ^a = average of multiple measurements
Procedure: 1 mL of a 3% solution of the test compound (30 mg of test compound in 1 mL solvent) was prepared in a solvent mix made up of 50% EtOH and 25% capric/caprylic triglyceride and 25% C12-C15 alkyl benzoate. 50 μL of this solution (containing 1.5 mg of test compound) was added carefully to the centre of a glass microscope slide and the volatile components left to evaporate in the dark for at least 3 hours to give a liquid film. The prepared films were then exposed for 1 hour to an Eimac 150 W xenon arc lamp filtered through Pyrex (15 Amp supply current, samples 19 cm from the lamp) previously allowed to warm up for 15 minutes prior to sample exposure. The irradiation was performed in a fume cupboard where the air flow was sufficient to keep sample T<30° C. One hour's exposure represented a calculated radiation dose (using meter) of approximately 100 MED.
In order to calculate the photostability of the test compounds, the exposed slides were placed in a beaker and rinsed with 2×5 mL EtOH, 1×5 mL MeOH. The combined washings were then added to a 100 mL volumetric flask and made up to 100 mL total volume with methanol. The UV absorbance was then measured in a 10 mm cuvette. The percent stability is measured as the ratio of absorbance at λmax for the irradiated sample compared to the unirradiated sample.
The thin films are a good surrogate for testing the stability of a candidate in, for example, a sunscreen formulation as they use cosmetic emollients as solvent and are formed at cosmetically relevant concentrations.

[3] = % transmission spectrum of 0.1% solution (breakthrough, steepness); conditions: for Steepness: distance in nm over which transmittance increases from 1 to 80%; for Breakthrough (1% T at 0.1%): value in nm where transmittance increases beyond 1%, 0.1% solution
Description: FIG. 2 is a is a graphical representation of the % transmission of compounds 142 and 143 measured in a 2 mm cuvette as 0.1% solutions in methanol (142 is the left most trace);
as §1, with “The” for “FIG. 1 is a graphical representation of the absorbance of compounds 142 and 143 measured in a 10 mm cuvette as 0.001% solutions in methanol (142 is the uppermost trace at peak point of approximately 330 nm); The”

Row | Structure (SMILES) | λmax [1] | λcrit [1] | E (1%, 1 cm) [1] | ε [1] | Photostability (% remains) [2] | Steepness [3] | Breakthrough (1% T at 0.1%) [3] | Photostability [2]
1 | O=C(/C(=C\N1CCCN(/C=C(\C(=O)C(F)(F)F)c2ccccc2)c2ccccc21)c1ccccc1)C(F)(F)F [Compound 224] | 323 nm | 366 nm | 690 | 37546 | 97% | – | – | –
2 | O=C(C(=O)N1CCc2ccccc21)/C(=C/N1CCc2ccccc21)c1ccccc1 [Compound 277] | 365 nm | 388 nm | 872 | 34350 | – | 26 nm | 414 nm | 95%
3 | CC(C)(C)OC(=O)C(=O)/C(=C/N(c1ccccc1)c1ccccc1)c1ccccc1 [Compound 270] | 349 nm | 381 nm | 551 | 22023 | – | 35 nm | 400 nm | 89%
4 | Cc1cc(C)c(C(=O)/C(=C\N2CCc3cc(C(=O)OCCCOC(=O)c4ccc5c(c4)CCN5/C=C(/C(=O)c4c(C)cc(C)cc4C)c4ccccc4)ccc32)c2ccccc2)c(C)c1 [Compound 307] | 370 nm | 384 nm | 1251 | 107885 | – | 22 nm | 402 nm | 98, 98%
5 | COC(=O)c1ccc2c(c1)CCN2/C=C(/C(=O)c1ccc(C)cc1)c1ccccc1 [Compound 284] | 371 nm | 389 nm | 1150 | 45689 | – | 30 nm | 423 nm | –
6 | CCCCCCC(=O)C1=CN(c2ccc(N3C=C(C(=O)CCCCCC)C(C)(C)CC3)cc2)CCC1(C)C [Compound 129, reference compound] | 359 nm | 378 nm | 1169 and 1350 | 60809 and 70222 | – | 20 nm | 397 nm | –
7 | CN(C)S(=O)(=O)c1ccc(C(=O)/C(=C/N(c2ccccc2)c2ccccc2)c2ccccc2)cc1 [Compound 265] | 360 nm | 387 nm | 327 | 15775 | – | 48 nm | 418 nm | –
8 | CCN(/C=C(\C(=O)C(F)(F)C(F)(F)C(F)(F)F)c1ccccc1)c1ccccc1 [Compound 191] | 332 nm | 370 nm | 452 | 18948 | 95% | – | – | –
9 | COC(=O)c1ccc2c(c1)CCN2/C=C(/C(=O)C(=O)Oc1ccccc1)c1ccccc1 [Compound 281] | 376 nm | 392 nm | 703 | 30040 | – | 34 nm | 419 nm | –
10 | CCN(/C=C(/C(=O)C(F)(F)F)c1ccccc1)c1ccc(C(=O)OC)cc1 [Compound 239] | 348 nm | 375 nm | 728 | 25349 | – | 28 nm | 391 nm | –
11 | CCN(/C=C(\C(=O)C(F)(F)F)c1ccccc1)CCCCCCN(/C=C(\C(=O)C(F)(F)F)c1ccccc1)CC [Compound 242] | 318 nm | 353 nm | 544 | 30981 | – | 52 nm | 361 nm | –
12 | CCN(/C=C(\C(=O)c1c(F)c(F)c(F)c(F)c1F)c1ccccc1)CC [Compound 203] | 319 (broad) nm | 356 nm | 611 | 22532 | 31% | – | – | –
13 | COC(=O)c1ccc(N(/C=C(\C(=O)C(F)(F)F)c2ccccc2)c2ccccc2)cc1 [Compound 229] | 356 nm | 382 nm | 786 | 33427 | – | 33 nm | 403 nm | –
14 | CCCCC(CC)COC(=O)c1ccc(N(/C=C(\C(=O)C(F)(F)F)c2ccccc2)c2ccccc2)cc1 (stereo not shown) [Compound 230] | 355 nm | 381 nm | 522 | 27313 | – | 34 nm | 398 nm | –
15 | CC(C)(C)C(=O)/C(=C/N(c1ccccc1)c1ccccc1)c1ccccc1 [Compound 294] | 344 nm | 373 nm | 492 | 17462 | – | 28 nm | 383 nm | –
16 | COC(=O)c1ccc2c(c1)CCN2/C=C(/C(=O)OC1(C)CCCCC1)c1ccccc1 [Compound 288] | 356 nm | 370 nm | 1360 | 57009 | – | 28 nm | 383 nm | –
17 | CCCCC(CC)COC(=O)c1ccc(N(/C=C(\C(=O)C(F)(F)F)c2ccccc2)CC)cc1 (stereo not shown) [Compound 227] | 347 nm | 374 nm | 646 | 30252 | 85% | – | – | –
18 | CN(/C=C(\C(=O)C(F)(F)F)c1ccccc1)c1ccccc1 [Compound 183] | 332 nm | 367 nm | 759 | 23153 | 90% | – | – | 90%
19 | CCN(/C=C(\C(C)=O)c1ccccc1)CC [Compound 149] | 294 nm | – | 690 | 14973 | 6% | – | – | –
20 | O=C(/C(=C(/c1ccccc1)N1CCCC1)c1ccccc1)C(F)(F)F [Compound 204] | 363 nm | 387 nm | 358 | 12357 | 70% | – | – | –
21 | O=C(OCCCOC(=O)c1ccc2c(c1)CCN2/C=C(\C(=O)C(F)(F)F)c1ccccc1)c1ccc2c(c1)CCN2/C=C(\C(=O)C(F)(F)F)c1ccccc1 [Compound 228] | 374 nm | 391 nm | 1168 | 89042 | 95% | – | – | –
22 | CCOC(=O)/C(=C\N(C)C)c1ccccc1 [Compound 171] | 291 nm | – | 1169 | 22598 | 18% | – | – | –
23 | COc1ccc2c(c1)CCN2/C=C(\C(=O)C(F)(F)F)c1ccccc1 [Compound 200] | 381 nm | 393 nm | 1004 | 34855 | 91% | – | – | –
24 | COC(=O)c1ccc2c(c1)CCN2/C=C(/C(=O)c1cccc(C)c1)c1ccccc1 [Compound 286] | 370 nm | 389 nm | 1205 | 47867 | – | 46 nm | 423 nm | –
25 | O=C(/C(=C\N1CCc2ccc(C(F)(F)F)cc21)c1ccccc1)C(F)(F)F [Compound 236] | 364 nm | 387 nm | 815 | 31379 | – | 19 nm | 409 nm | –
26 | CCCCC(CC)COC(=O)c1cccc(N(/C=C(/C(=O)C(F)(F)F)c2ccccc2)CC)c1 (stereo not shown) [Compound 232] | 334 nm | 368 nm | 430 | 20462 | – | 35 nm | 373 nm | –
27 | O=C(/C(=C\N1CCc2cc(C(F)(F)F)ccc21)c1ccccc1)C(F)(F)F [Compound 235] | 361 nm | 386 nm | 965 | 37158 | – | 19 nm | 409 nm | –
28 | CN(C)S(=O)(=O)c1ccc(C(=O)/C(=C/N2CCc3ccccc32)c2ccccc2)cc1 [Compound 266] | 368 nm | 390 nm | 552 | 23870 | – | 46 nm | 429 nm | –

— patent US11512042B2, “Enamine compounds for absorbance of electromagnetic energy” (Commonwealth Scientific and Industrial Research Organisation, priority 2015, dated 2022)
